This is an account of results in patent US8916543B1 (priority 2009, dated 2014).

Test [1] deals with T1, α-toxin (Staphylococcus aureus, UniProt P09616). To be noted: cited from earlier work.
Test [2] deals with T1, α-toxin. Type of test: cell-based.
The subject of another test is S. aureus strain 8325-4. As to the kind of experiment: Experimental keratitis in rabbits, S. aureus strain 8325-4, topical treatment. The test is classed as in vivo, Staphylococcus aureus. As to conditions: rabbit eyes. On the procedure: FIG. 4 is a set of graphs that show the effect of CD-cholesterol treatment of eyes infected with strain 8325-4. Rabbit corneas were injected with 10^2 CFU of S. aureus 8325-4. Eyes were randomized and treated with 1% CD-cholesterol, 1% CD, or PBS from 7 to 13 hours PI. At 7 hours PI, eyes were treated with a single topical drop every 15 minutes from 7 to 8 hours PI. At 8.5 hours PI, eyes were treated with a single topical drop every 30 minutes until 13 hours PI (a total of 15 drops). At 13 hours PI, the eyes were evaluated by SLE (A) and erosion diameters were measured using fluorescein strips (B) The pathologic changes were observed then averaged and statistical comparisons were performed using one-way ANOVA. The erosions were averaged and statistical comparisons using analysis of variance and Student's t-test were performed. Error bars are the standard error of the mean (SEM). P≦0.05, for either test, was considered significant. […] The eyes treated with 1% CD or with PBS had statistically similar SLE scores (P=0.4002). […] The eyes treated with 1% CD-cholesterol or 1% CD had erosion diameters similar to one another (P=0.4002).
(§1) Rabbits (n≧4 eyes per group) were infected as previously described, injecting approximately 100 colony forming units (CFU) of strain 8325-4 or strain 60171, a clinical isolate, in 10 μL of TSB into the stroma of the cornea. Accuracy of the inoculum size was verified by plating aliquots (100 μL) of serial dilutions in triplicate on TSA.
At 7 hours postinfection (PI), treatment began and consisted of a single topical drop of PBS, 1% CD, or 1% CD-cholesterol every 15 minutes from 7 to 8 hours PI. Then, beginning at 8.5 hours PI, a single drop was administered every 30 minutes until 13 hours PI; a total of 15 drops per eye. At 13 hours PI, corneal erosions were measured and all eyes underwent slit lamp examination (SLE) to quantify pathologic changes. […]
Corneas of rabbits infected with either S. aureus 8325-4 or 60171 were harvested at 14 hours PI and bacteria were quantified as described previously. […]

In another test the test system is S. aureus strain 60171. As to the kind of experiment: Experimental keratitis in rabbits, S. aureus clinical isolate 60171, topical treatment. The test is classed as in vivo, Staphylococcus aureus. As to conditions: rabbit eyes. On the procedure:
FIG. 5 is a set of graphs that show the effect of CD-cholesterol treatment of eyes infected with strain 60171. Eyes were treated and evaluated as described for FIG. 3. Error bars are the SEM. […] In contrast, the CD-treated eyes had similar SLE scores compared to the PBS-treated eyes (P=0.7403). […] There was no statistical difference between the eyes treated with 1% CD and the eyes treated with PBS (P=0.2131).
as §1
At 7 hours postinfection (PI), treatment began and consisted of a single topical drop of PBS, 1% CD, or 1% CD-cholesterol every 15 minutes from 7 to 8 hours PI. Then, beginning at 8.5 hours PI, a single drop was administered every 30 minutes until 13 hours PI; a total of 15 drops per eye. At 13 hours PI, corneal erosions were measured and all eyes underwent slit lamp examination (SLE) to quantify pathologic changes.
SLE of pathologic changes of rabbit eyes was performed by two masked observers as described previously.
Corneas of rabbits infected with either S. aureus 8325-4 or 60171 were harvested at 14 hours PI and bacteria were quantified as described previously.
These finding raised the possibility that CD-cholesterol could treat corneas infected with S. aureus. Rabbit corneas were injected with either S. aureus strain 8325-4 or S. aureus clinical isolate 60171. Rabbit eyes were treated from 7 to 13 hours PI with PBS, 1% CD, or 1% CD-cholesterol. […]
Strain 60171, an ocular clinical isolate, was injected into the corneas of rabbits to determine the effectiveness of treatments with CD-cholesterol, CD, or PBS. As described above, the pathologic changes and erosion development were observed via SLE at 13 hours PI (FIG. 2B) whereas the number of surviving bacteria was determined at 14 hours PI.

Another test deals with α-toxin heptamer (Staphylococcus aureus, UniProt P09616). To be noted: literature; cited from earlier work.
Setting [3] is: 1% topical drops 7 to 13 hours PI (15 drops), 13 hours PI.
The mark [4] stands for this setting: 1% topical drops 7 to 13 hours PI, 13 hours PI.
Where [5] appears, read: 1% topical drops 7 to 13 hours PI, 14 hours PI.

“Also recorded” adds a separate entry of the source.

T1 sequence (P09616 27-319 limits assumed): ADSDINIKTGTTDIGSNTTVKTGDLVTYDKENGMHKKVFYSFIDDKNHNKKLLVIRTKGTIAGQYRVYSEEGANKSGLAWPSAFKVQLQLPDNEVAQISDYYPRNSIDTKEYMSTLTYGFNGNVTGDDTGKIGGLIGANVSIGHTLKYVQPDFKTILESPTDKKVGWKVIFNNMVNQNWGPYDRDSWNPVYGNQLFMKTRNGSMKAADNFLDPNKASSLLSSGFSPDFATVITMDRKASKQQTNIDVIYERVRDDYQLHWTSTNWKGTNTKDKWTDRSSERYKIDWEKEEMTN
α-toxin heptamer, sequence (P09616 27-319 limits assumed): as above

For `C[C@]12CCC(=O)C=C1CC[C@@H]1[C@@H]2[C@@H](O)C[C@@]2(C)[C@H]1CC[C@]2(O)C(=O)CO` [hydrocortisone], on α-toxin [1], the “inhibition of α-toxin activity” value is “weakly inhibited”.
As to methyl-β-cyclodextrin [CD], the “reduction in α-toxin hemolytic titer” value at α-toxin [2] was “twofold; also recorded: two-fold”. Moreover, the “average SLE score” value in the test with S. aureus strain 8325-4 (setting [3]) is reported as 9.23±0.39; with S. aureus strain 60171 (setting [3]), 9.02±0.90. In addition, the corneal erosion diameter in the test on S. aureus strain 8325-4 (setting [4]) is on record as 4.55±0.28 mm. In addition, the “number of surviving S. aureus” value in the test on S. aureus strain 8325-4 (setting [5]) is 9.36×10^6±4.22×10^5 bacteria per cornea. In the test on S. aureus strain 60171 (setting [4]), the “diameter of corneal epithelial erosions” value turned out to be 4.83±0.31 mm. Also, the “bacteria in the corneas” value in the test with S. aureus strain 60171 (setting [5]) is reported as 2.42×10^7±8.96×10^6 bacteria. Also, the “binding to the pore of α-toxin heptamer” value on α-toxin heptamer is “bind weakly”.
